Measurements published in patent US20240190851A1, “FURAN FUSED RING-SUBSTITUTED GLUTARIMIDE COMPOUND” (MEDSHINE DISCOVERY INC., priority 2021, published 2024).
Structures can show the parent of a compound that is named as a salt.

Experiments:
[1] = biological target: T1, androgen receptor AR (Homo sapiens, UniProt P10275, T878A); assay: AR degradation in LNCaP cells by ICW method; format: cell-based; conditions: 24 hours
T1 construct: degradation effect of compounds on androgen receptor AR in LNCaP cells; endogenous in cells; host or cells: LNCaP
T1 sequence (P10275 1-920 T878A): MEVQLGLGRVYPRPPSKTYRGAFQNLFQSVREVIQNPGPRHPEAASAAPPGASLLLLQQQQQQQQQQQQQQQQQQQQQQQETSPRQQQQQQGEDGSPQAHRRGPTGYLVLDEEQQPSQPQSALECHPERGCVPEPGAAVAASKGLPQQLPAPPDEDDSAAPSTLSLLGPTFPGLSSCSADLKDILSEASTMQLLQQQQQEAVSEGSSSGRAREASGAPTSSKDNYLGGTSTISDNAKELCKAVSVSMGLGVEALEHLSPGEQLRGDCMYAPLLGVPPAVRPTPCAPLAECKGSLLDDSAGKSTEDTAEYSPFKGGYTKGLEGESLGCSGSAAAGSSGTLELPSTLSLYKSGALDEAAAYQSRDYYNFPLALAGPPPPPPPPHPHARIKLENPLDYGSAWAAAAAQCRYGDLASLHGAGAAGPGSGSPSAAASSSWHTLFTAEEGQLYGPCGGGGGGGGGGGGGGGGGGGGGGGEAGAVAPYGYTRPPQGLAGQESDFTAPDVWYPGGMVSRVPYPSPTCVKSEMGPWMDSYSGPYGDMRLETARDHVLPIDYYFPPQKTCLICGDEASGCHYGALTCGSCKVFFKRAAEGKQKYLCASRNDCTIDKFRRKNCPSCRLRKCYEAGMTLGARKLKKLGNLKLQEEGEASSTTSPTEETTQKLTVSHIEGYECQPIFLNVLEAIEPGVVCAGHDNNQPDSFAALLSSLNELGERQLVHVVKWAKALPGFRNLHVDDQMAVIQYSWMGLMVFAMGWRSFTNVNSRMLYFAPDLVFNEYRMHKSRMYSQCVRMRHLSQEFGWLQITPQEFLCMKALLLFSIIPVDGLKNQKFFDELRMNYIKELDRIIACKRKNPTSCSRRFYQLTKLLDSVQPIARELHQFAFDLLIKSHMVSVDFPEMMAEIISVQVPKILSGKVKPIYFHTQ
Experimental: Experimental purpose: To test the degradation effect of compounds on androgen receptor AR in LNCaP cells by ICW method.
Day 1 • 1. The cell culture medium, 0.025% trypsin, and phosphate buffered saline were preheated in a 37° C. water bath. • 2. Cells digested by trypsin were centrifuged at 1000 rpm for 5 minutes. The supernatant was discarded, and then the cells were resuspended in fresh culture medium. • 3. The cells were inoculated in a COL-Coated CellCarrier-384 plate at a density of 4 k/[…]/well. • 4. The 384 cell plate inoculated with cells was placed in an ultra-clean bench for 10 minutes. • 5. The cell plate was cultured overnight in a CO2 cell incubator.
Day 2 • 1. The compound at a concentration of 10 mM was diluted to 3 mM (3 μL+7 μL of dimethyl sulfoxide) before serial dilution. • 2. The compound was serially diluted 3-fold (4 μL+8 μL) in an Echo plate using Bravo. • 3. ZPE and HPE control wells were setup, and the ZPE control wells were dimethyl sulfoxide. • 4. The Echo plate was centrifuged at 1000 rpm for 1 minute, and then the diluted compound was transferred from the Echo plate to an intermediate plate using Echo with 200 nL/well. • 5. To the intermediate plate was added the cell culture medium using Multidrop combi with […]. • 6. The intermediate plate was shaken on a horizontal shaker for 1 minute to mix the compound well with the culture medium. • 7. The compound was transferred from the intermediate dilution plate to the cell plate using Bravo with 4 μL/well. • 8. The cell plate was shaken on the horizontal shaker for 1 minute, and centrifuged at 800 rpm for 30 seconds. • 9. The cell plate was returned to the CO2 incubator, and cultured for another 24 hours.
Day 3 • 1. 4% paraformaldehyde was removed from the refrigerator and brought to room temperature. • 2. The cell plate was removed from the incubator. • 3. To the cell plate was directly added 4% paraformaldehyde with 40 μL/well. • 4. The plate was incubated at room temperature for 20 minutes. • 5. The culture medium was manually shaken off from the cell plate, inverted in a centrifuge, and centrifuged at 800 rpm for 7 seconds to fully remove the residual culture medium. • 6. To the cell plate was added 4% paraformaldehyde with 25 μL/well. • 7. The plate was incubated at room temperature for 30 minutes. • 8. The paraformaldehyde solution was manually shaken off from the cell plate, inverted in the centrifuge, and centrifuged at 800 rpm for 7 seconds. • 9. 0.1% Trition was added with 25 μL/well. • 10. The plate was incubated at room temperature for 10 minutes. • 11. The 0.1% Trition solution was manually shaken off from the cell plate, inverted in the centrifuge, and centrifuged at 800 rpm for 7 seconds. • 12. Intercept® (PBS) blocking buffer was added with 25 μL/well. • 13. The plate was incubated at room temperature for 1 hour. • 14. The Intercept® (PBS) blocking buffer solution was manually shaken off from the cell plate, inverted in the centrifuge, and centrifuged at 800 rpm for 7 seconds. • 15. Primary antibody solution was added with 20 μL/well. The cell plate was placed in the centrifuge, and centrifuged at 800 rpm for 7 seconds. • 16. The cell plate was sealed, and then incubated overnight at 4° C.
Day 4 • 1. The primary antibody solution was manually shaken off from the cell plate, inverted in the centrifuge, and centrifuged at 800 rpm for 7 seconds. • 2. The plate was washed three times with 110 μL of PBS. • 3. The cell plate was inverted in the centrifuge, and centrifuged at 800 rpm for 7 seconds. • 4. Secondary antibody and DAPI solution was added with 20 μL/well. The cell plate was placed in the centrifuge, and centrifuged at 800 rpm for 7 seconds. • 5. The plate was incubated at room temperature for 1 hour. • 6. The secondary antibody and DAPI solution was manually shaken off from the cell plate, inverted in the centrifuge, and centrifuged at 800 rpm for 7 seconds. • 7. […]

[2] = system: human prostate cancer LNCaP cells; assay: Antiproliferative effect in LNCaP cells (CellTiter-Glo, 6 days); format: cell-based; conditions: 144 h
Experimental: In this experiment, the inhibitory effect of the test compound on cell proliferation in human prostate cancer LNCaP cells was detected.
The tumor cell lines were cultured in a 37° C., 5% CO2 incubator under the above culture conditions. Regular passage, and cells in logarithmic growth phase were taken for plating.
2. Cell Plating • (1) Cells were stained with trypan blue and viable cells were counted; • (2) the cell concentration was adjusted to an appropriate concentration;
• (3) 90 μL of cell suspension per well was added to the culture plate as shown in the table above, and cell-free culture medium was added to the blank control well; • (4) the culture plate was cultured overnight in a 37° C., 5% CO2 incubator with 100% relative humidity.
Preparation of stock solution storage plate with 400 times the initial concentration of the compound: The compound was serially diluted with DMSO from the highest concentration to the lowest concentration. The solution was prepared as needed each time.
Preparation of Working Solution with 10 Times the Initial Concentration of Compounds and Cell Treatment with Compounds • (1) To a V-bottom 96-well plate was added 78 μL of cell culture medium, and 2 μL of compound was pipetted from a stock solution storage plate with 400 times the initial concentration of the compound and added to the cell culture medium of the 96-well plate. To vehicle control and blank control was added 2 μL of DMSO. After the compound or DMSO was added, blowing with a pipette and mixing well were carried out. • (2) Administration: 10 μL of a working solution with 10 times the initial concentration of the compound was added to the cell culture plate. To vehicle control and blank control was added 10 μL of DMSO-cell culture medium mixture. • (3) The 96-well plate was returned to the incubator and cultured for 6 days.
The following steps were performed according to the instructions of Promega CellTiter-Glo luminescent cell viability assay kit (Promega-G7573). • (1) CellTiter-Glo buffer was melted and brought to room temperature; • (2) CellTiter-Glo substrate was brought to room temperature; • (3) CellTiter-Glo working solution was prepared by adding 100 mL of CellTiter-Glo buffer to a vial of CellTiter-Glo substrate to dissolve the substrate; • (4) the mixture was slowly vortexed and shaken to be fully dissolved; • (5) the cell culture plate was taken out and left for 30 minutes to equilibrate to room temperature; • (6) 50 μL of CellTiter-Glo working solution was added per well (equal to half the volume of cell culture medium per well). The cell plate was wrapped in aluminum foil to be protected from light; • (7) the culture plate was shaken on an orbital shaker for 2 minutes to induce cell lysis; (8) the culture plate was left at room temperature for 10 minutes to stabilize the luminescent signal; • (9) the luminescent signal was detected on a 2104 EnVision plate reader.
The inhibition rate (IR) of the test compound was calculated using the following formula: IR (%)=(RLU vehicle control−RLU compound)/(RLU vehicle control−RLU blank control)×100%. The inhibition rates of compounds at different concentrations were calculated in Excel, and then GraphPad Prism software was used to plot inhibition curves and calculate relevant parameters, including minimum inhibition rate, maximum inhibition rate, and ICSO.

[3] = system: human prostate cancer LNCaP xenograft tumor; assay: In vivo pharmacodynamic study, LNCaP subcutaneous xenograft tumor CB-17 SCID model; design: species or system CB-17 SCID mice; conditions: Enzalutamide 20 mg/kg p.o. QD
Experimental: Human prostate cancer LNCaP cells (ECACC-89110211) were cultured in vitro in a monolayer under the culture conditions of RPMI-1640 medium with 10% fetal bovine serum, […], and 100 μg/mL streptomycin, and cultured in a 37° C., 5% CO2 incubator.
Routine digestion with trypsin-EDTA was performed twice a week for passaging. When the cell saturation density was 80% to 90% and the number of cells reached the required level, the cells were collected, counted, and inoculated.
CB-17 SCID mice, 6 to 8 weeks old, male, weighing 18 to 22 g.
0.2 mL (1×10^7) of LNCaP cells (with matrix gel, volume ratio of 1:1) were subcutaneously inoculated on the right back of each mouse. The mice were subjected to surgical castration when the average tumor volume reached approximately 80 mm^3, and grouping and administration were initiated when the average tumor volume reached 166 mm^3.
Tumor diameters were measured twice a week with a vernier caliper. The formula for calculating tumor volume was: V=0.5a×b^2, wherein a and b represented the long and short diameters of the tumor, respectively.
The antitumor efficacy of compounds was evaluated by TGI (%). TGI (%) reflected the tumor growth inhibition rate. TGI (0%)=[(1−(average tumor volume at the end of administration in a treatment group−average tumor volume at the beginning of administration in this treatment group))/(average tumor volume at the end of treatment in the vehicle control group−average tumor volume at the beginning of treatment in the vehicle control group)]×100%.

Which results are given for N#Cc1ccc(O[C@H]2CC[C@H](NC(=O)c3ccc(N4CCC(CN5CCN(c6ccc7c(ccc8occ(C9CCC(=O)NC9=O)c87)c6)CC5)CC4)nn3)CC2)cc1Cl (some centres unmarked) [Hydrochloride of WX014]?
DC50 [1]: 22.4 nM; Dmax [1]: 76.2%

Which IC50 [2] does the source give for CC1(C)C(=O)N(c2ccc(C#N)c(C(F)(F)F)c2)C(=S)N1c1ccc(OCCN2CCN(CC(=O)Nc3ccc4occ(C5CCC(=O)NC5=O)c4c3)CC2)c(F)c1 (centres unmarked) [WX001] here?
The IC50 was 333 nM.

For CNC(=O)c1ccc(N2C(=S)N(c3ccc(C#N)c(C(F)(F)F)c3)C(=O)C2(C)C)cc1F [Enzalutamide, reference compound], which “Tumor volume (Day 0)” value ([3]; Day 0, start of administration) is on record?
Its value is 166 ± 18 mm^3.

What about the “TGI (Day 21)” value ([3]; Day 21) of the same compound?
Its value is 101.9%.

And the “Tumor volume (Day 21)” value ([3]; Day 21)?
Its value is 157 ± 37 mm^3.

CC1(C)C(=O)N(c2ccc(C#N)c(C(F)(F)F)c2)C(=S)N1c1ccc(OCCN2CCN(CC(=O)Nc3ccc4c(ccc5occ(C6CCC(=O)NC6=O)c54)c3)CC2)c(F)c1 (centres unmarked) [WX003] was tested. Which IC50 [2] did it give?
Its IC50 is 230 nM.

With CC1(C)C(=O)N(c2ccc(C#N)c(C(F)(F)F)c2)C(=S)N1c1ccc(OCCN2CCN(CC(=O)Nc3cccc4c3ccc3occ(C5CCC(=O)NC5=O)c34)CC2)c(F)c1 (centres unmarked) [WX009] as the compound, how does the DC50 [1] read?
Its DC50 is 10.1 nM.

What about the Dmax [1] of the same compound?
Its Dmax is 64.7%.

How did the IC50 [2] turn out when CC1(C)C(=O)N(c2ccc(C#N)c(C(F)(F)F)c2)C(=S)N1c1ccc(OCCN2CCN(C3(C(=O)Nc4ccc5occ(C6CCC(=O)NC6=O)c5c4)CC3)CC2)c(F)c1 (centres unmarked) [WX005] was run?
Its IC50 is 190 nM.

Which IC50 [2] does the source give for CC1(C)C(=O)N(c2ccc(C#N)c(C(F)(F)F)c2)C(=S)N1c1ccc(OCCN2CCN(CCCc3ccc4c(C5CCC(=O)NC5=O)coc4c3)CC2)c(F)c1 (centres unmarked) [WX004] here?
Its IC50 is 25 nM.
